{"source": "paper PMC7497641", "about": "“Neurotropic activity and safety of methylene-cycloalkylacetate (MCA) derivative 3-(3-allyl-2-methylenecyclohexyl) propanoic acid” (ACS Chemical Neuroscience, 2020)", "experiment": "Acute (single-dose) oral toxicity, pathology of major organs", "format": "in vivo", "conditions": "2000 mg/kg orally", "procedure": "Prioritizing compounds with a lower chance of causing toxicity, early in the drug discovery process, would help in the drug development process.[30] With this consideration we conducted acute (single-dose) toxicity study[31] to determine the short-term adverse pathological effects on major mice organs of HU-MCA-13 when administered in mice in a single dose, for a period of 24 h. One group of 5 mice received HU-MCA-13 orally at a dose of 2000 mg/kg, dissolved in a nano-emulsifying drug delivery system[32] in a bolus of 0.4 mL/mouse. After 24 h exposure, the animals were sacrificed, and organs were harvest for pathology analyses. […] This finding was not related to the tested compound and was considered as an accidental finding. This information on the lack of acute toxicity of HU-MCA-13 may predict the safety of this compound in future therapeutic evaluation.\nC57Bl/6 mice, 8 weeks old, obtained from Envigo animal breeding center were used in the study. All experiments were approved by the Institutional Animal Care and Use Committee and performed according to OECD guidelines for testing of chemicals.[53] Organs were harvested from mice that were administered with MCA-13 for the detection of possible toxicological lesions in the framework of a safety assessment. […]"}
{"smiles": "C=CCC1CCCC(CCC(=O)O)C1=C", "note": "(centres unmarked) [HU-MCA-13, 3-(3-allyl-2-methylenecyclohexyl)propanoic acid]", "values": [{"measurement": "cytotoxic lesions in all organs (histopathology)", "setting": "single dose in nano-emulsifying drug delivery system, 24 h", "value": "no cytotoxic lesions were found"}, {"measurement": "finding in last part of colon, rectum and adjacent anal unhaired skin", "setting": "in three animals, considered accidental, not related to the tested compound", "value": "severe purulent, necrotizing inflammation"}]}
